{"source": "patent US8653120B2", "about": "“Method for treatment of chronic neuropathic pain” (Apkarian Technologies LLC, priority 2004, dated 2014)", "type_in_all_cases": "in vivo", "key": {"[1]": {"system": "Rats with mechanically injured paws", "assay": "Rat model of neuropathic pain due to injury: tolerance to weight applied to the injured paw", "description": "Rats with mechanically injured paws were used as models of neuropathic pain. In the test, a weight is applied to the injured paw, and the pain response is assessed. […] Rats (groups or 8-10 rats per treatment) were treated with oral saline (control) or 3, 10 or 30 mg/kg of D-cycloserine for a period of two weeks. Pain was monitored from two days before the treatment commenced for a period of 35 days total. […] The open squares represent the control. The black squares represent 30 mg/kg dosage. The two intermediate lines are 3 (lighter) and 10 mg/kg (darker). […] The black squares are the retreated animals, the white squares are the controls and the intermediate colored squares are animals treated for the first time with 30 mg/kg. […] Thus, treatment of chronic pain requires a treatment regimen that extends over a period of time, for example at least one week, sufficient to provide a benefit to the individual being treated."}, "[2]": {"system": "Rats with mechanically injured paws", "assay": "Rat model of neuropathic pain due to injury: test based on paw position", "settings": "same test animals as FIGS. 2A-C; FIGS. 3A-C", "description": "Rats with mechanically injured paws were used as models of neuropathic pain. In the test, a weight is applied to the injured paw, and the pain response is assessed. […] Rats (groups or 8-10 rats per treatment) were treated with oral saline (control) or 3, 10 or 30 mg/kg of D-cycloserine for a period of two weeks. Pain was monitored from two days before the treatment commenced for a period of 35 days total. FIGS. 3A-C show results for the same test animals as FIGS. 2A-C, except using a test based on paw position as opposed to tolerance to applied weight. In this case, lower numbers reflect lesser pain."}, "[3]": {"system": "rat exhibiting mechanical sensitivity", "assay": "Analgesia after infusion into different parts of the rat brain", "settings": "50 μg infusion, FIG. 5"}, "[4]": {"system": "rats treated with cisplatin", "assay": "Rat model of cisplatin-induced neuropathy: mechanical sensitivity", "description": "To model drug-induced pain, rats were treated with cisplatin (2 mg/kg), a common chemotherapy drug. As shown graphically in FIG. 4, after 14 days of treatment, the rats had developed mechanical sensitivity. […] In contrast, sensitivity was maintained in rats treated with a saline control (white bars). Thus, in rat models of cisplatin-induced neuropathy, pain behavior decreases 50% in two weeks in animals treated with cycloserine compared with animals treated with placebo."}, "[5]": {"settings": "30 mg/kg, longer treatment period, FIG. 2C"}}, "data": [{"compound": "N[C@@H]1CON=C1O", "note": "[D-cycloserine]", "values": [{"measurement": "analgesic effectiveness on re-treatment vs first treatment", "setting": "[1]; 30 mg/kg re-treatment starting 1 day after end of the 35 day test, FIG. 2B", "result": "about twice as great"}, {"measurement": "post-treatment duration of analgesia after longer treatment", "setting": "[1]; [5]", "result": "significant analgesic affect being observed 30 days after cessation of treatment"}, {"measurement": "time course of analgesic effect with longer treatment", "setting": "[1]; [5]", "result": "analgesic effect increases with treatment for a period of three weeks, after which a plateau is reached"}, {"measurement": "analgesic effect of acute administration on neuropathic behavior", "setting": "[1]; acute oral or intrathecal administration", "result": "only minimal analgesic effects"}, {"measurement": "post-treatment analgesia", "setting": "[1]; after end of two-week oral treatment, FIG. 2A", "result": "long-lasting analgesia"}, {"measurement": "day of return to initial neuropathy levels", "setting": "[1]; after two-week oral treatment, FIG. 2A", "result": 35, "unit": "days"}, {"measurement": "analgesic response during treatment (tolerated weight on injured paw)", "setting": "[1]; oral 3, 10 or 30 mg/kg for two weeks, vs saline, FIG. 2A", "result": "generally dose-dependent response"}, {"measurement": "pain measured by paw position (lower numbers reflect lesser pain)", "setting": "[2]", "result": "indicates the effectiveness of the D-cycloserine"}, {"measurement": "analgesia after infusion into medial prefrontal cortex", "setting": "[3]; vs saline infusion", "result": "result in analgesia"}, {"measurement": "analgesia after infusion into bilateral amygdala", "setting": "[3]", "result": "result in analgesia"}, {"measurement": "analgesia after infusion into visual cortex", "setting": "[3]", "result": "Only medial prefrontal cortex and amygdala infusions result in analgesia"}, {"measurement": "decrease of pain behavior compared with placebo", "setting": "[4]; cisplatin-induced neuropathy, two weeks of treatment", "result": 50, "unit": "%"}, {"measurement": "effect on cisplatin-induced mechanical sensitivity", "setting": "[4]; oral 30 mg/kg, two treatments per day, 14 days, with cisplatin 2 mg/kg, FIG. 4", "result": "partial reversal of the mechanical sensitivity"}]}]}
